Assay results as given in ChEMBL document CHEMBL4392837, “Identification of highly potent and selective MMP2 inhibitors addressing the S1' subsite with d-proline-based compounds” (Bioorg Med Chem, 2019).
Activity calls are given as the source filed them. The calls are words filed in the database; no cut-off is given here.

Organism: Homo sapiens
Assay: Inhibition of cell migration of human A375M6 cells at 1 to 10 uM incubated for 6 hrs by Boyden chambers assay
Type: functional

CNC(=O)[C@H](Cc1c[nH]c2ccccc12)NC(=O)[C@@H](CC(=O)NO)CC(C)C
inhibition: Active
